According to patent US20130280260A1, “OSTEOCLASTOGENESIS INHIBITOR CONTAINING ANTI-VDAC ANTIBODY” (TOKYO WOMEN'S MEDICAL UNIVERSITY, priority 2010, published 2013):

Key:
human osteoclasts = assay: Inhibition of osteoclast differentiation and osteoclastogenesis in human osteoclastogenesis culture system (monocytes with M-CSF and RANKL); type: cell-based; conditions: 0.2 μg/mL or 2 μg/mL, in comparison with the control
Description: • (1) Preparation of Monoclonal Antibodies against Cell Membrane Proteins of Osteoclasts • (i) Peripheral blood monocytes from five healthy subjects were cultured in flasks in the presence of M-CSF and RANKL for approximately 2 weeks and differentiated into osteoclasts. After trypsin and EDTA were added to the human osteoclasts, the resulting cells were cultured at 37° C. for 15 minutes, and then detached with a cell scraper and harvested. This operation was repeated to collect cell membranes of human mature osteoclasts. Membrane proteins were prepared from the human mature osteoclasts using a RIPA buffer. • (ii) Using the obtained membrane proteins as an antigen, mice were immunized. Spleen cells of the mice thus immunized were fused with myeloma cells, and four types of hybridomas were obtained. Screening was performed by ELISA using a plate on which the osteoclast membrane proteins were immobilized. The wells of the positive result were further examined for a reactivity to human osteoclasts and a nonspecific reactivity to monocytes. After cloning, 5D1/2B9/2H10 and 5D1/3F3/2C8 were obtained as final lines. • (iii) From these final lines, monoclonal antibodies were obtained. • (2) Purification of Proteins Bound to Antibody Column
• (1) Into the human osteoclastogenesis culture system obtained in step 1. […]

[1] = test system: monoclonal antibody 20B12 (anti-VDAC1); assay: Epitope analysis by ELISA using synthetic peptides covering VDAC1; type: binding, mouse; conditions: for OD450-595: 20B12 at 5 μg/mL, average of two wells; for reaction between peptide and antibody (ELISA): text summary of Tables 2, 3
Description: In order to examine an epitope for the anti-VDCA monoclonal antibody (VDAC1(20B12), SANTA CRUZ Biotechnology, Inc., sc-58649, mouse monoclonal IgG2b, 100 μg/ml), an analysis was conducted by ELISA using synthetic peptides (Table 1). As the synthetic peptides, 28 types of peptides were prepared so as to cover the VDAC1 completely.
The synthetic peptides were fixed to plates by an avidin-biotin method as follows.
The synthetic peptides (325 nmol/peptide) were each dissolved in 250 μL of DMSO, and then diluted 6400-fold with Wash Buffer (PBS containing 0.05% Tween-20). After a streptavidin-coated plate was washed with Wash Buffer (350 μL, 3 times), 100 μL of the peptide thus diluted was added into the plate, which was left standing in cold storage overnight.
ELISA was performed using the plate to which the peptide was fixed in 7.1, and antibodies bound to the peptide were detected. The detection procedure was as follows. Two wells were used for one condition, and the average was taken. • (1) The liquid in wells was taken out. After washing with Wash Buffer (350 μL, three times), 200 μL of Blocking Buffer (SynBlock) was added to the wells, which were shaken at 37° C. for 1 hour. • (2) The liquid in the wells was taken out, and 50 μL of the monoclonal antibody 20B12 (diluted to 5 μg/mL with Blocking Buffer) was added to the wells, which were shaken at 37° C. for 1 hour. • (3) The liquid in the wells was taken out. After washing with Wash Buffer, 50 μL of HRP-labeled Goat anti Mouse IgG (Fc) (the original solution had been diluted 25000-fold with Wash Buffer) was added to the wells, which were shaken at 37° C. for 1 hour. • (4) The liquid in the wells was taken out, and the plate was washed. Then, 60 μL of a staining solution was added to the plate, which was incubated at 37° C. for 30 minutes. After 60 μL of a stop solution was added thereto to stop the color reaction, the absorbance at 450 nm (Reference 595 nm) was measured with a plate reader.

Compound | osteoclastogenesis (total area of osteoclasts) (human osteoclasts) | OD450-595 ([1]; first time) | OD450-595 ([1]; second time) | reaction between peptide and antibody (ELISA) [1]
NCCCC(O)(P(=O)(O)O)P(=O)(O)O [alendronate sodium hydrate] | significantly inhibited | – | – | –
ACFSAKVNNS SLIGLGYTQT (ACFSAKVNNSSLIGLGYTQT) [Peptide 24, synthetic peptide covering part of VDAC1] | – | 1.284 | 1.336 | significant
AGYQMNFETA KSRVTQSNFA (AGYQMNFETAKSRVTQSNFA) [Peptide 16, synthetic peptide covering part of VDAC1] | – | 0.388 | 0.444 | –
ALLDGKNVNA GGHKLGLGLE (ALLDGKNVNAGGHKLGLGLE) [Peptide 27, synthetic peptide covering part of VDAC1] | – | 0.290 | 0.371 | –
ALVLGYEGWL AGYQMNFETA (ALVLGYEGWLAGYQMNFETA) [Peptide 15, synthetic peptide covering part of VDAC1] | – | 0.337 | 0.373 | –
EHINLGCDMD FDIAGPSIRG (EHINLGCDMDFDIAGPSIRG) [Peptide 13, synthetic peptide covering part of VDAC1] | – | 0.369 | 0.322 | –
FDIAGPSIRG ALVLGYEGWL (FDIAGPSIRGALVLGYEGWL) [Peptide 14, synthetic peptide covering part of VDAC1] | – | 0.316 | 0.385 | –
FTEKWNTDNT LGTEITVEDQ (FTEKWNTDNTLGTEITVEDQ) [Peptide 8, synthetic peptide covering part of VDAC1] | – | 0.341 | 0.411 | –
FTSSGSANTE TTKVTGSLET (FTSSGSANTETTKVTGSLET) [Peptide 5, synthetic peptide covering part of VDAC1] | – | 0.311 | 0.351 | –
GGHKLGLGLE FQA (GGHKLGLGLEFQA) [Peptide 28, synthetic peptide covering part of VDAC1] | – | 0.418 | 0.455 | –
GGSIYQKVNK KLETAVNLAW (GGSIYQKVNKKLETAVNLAW) [Peptide 20, synthetic peptide covering part of VDAC1] | – | 0.362 | 0.398 | –
GKSARDVFTK GYGFGLIKLD (GKSARDVFTKGYGFGLIKLD) [Peptide 2, synthetic peptide covering part of VDAC1] | – | 0.363 | 0.421 | –
GYGFGLIKLD LKTKSENGLE (GYGFGLIKLDLKTKSENGLE) [Peptide 3, synthetic peptide covering part of VDAC1] | – | 0.280 | 0.354 | –
HTNVNDGTEF GGSIYQKVNK (HTNVNDGTEFGGSIYQKVNK) [Peptide 19, synthetic peptide covering part of VDAC1] | – | 0.300 | 0.312 | –
IAAKYQIDPD ACFSAKVNNS (IAAKYQIDPDACFSAKVNNS) [Peptide 23, synthetic peptide covering part of VDAC1] | – | 0.276 | 0.357 | –
KLETAVNLAW TAGNSNTRFG (KLETAVNLAWTAGNSNTRFG) [Peptide 21, synthetic peptide covering part of VDAC1] | – | 0.235 | 0.270 | –
KSRVTQSNFA VGYKTDEFQL (KSRVTQSNFAVGYKTDEFQL) [Peptide 17, synthetic peptide covering part of VDAC1] | – | 0.285 | 0.308 | –
KYRWTEYGLT FTEKWNTDNT (KYRWTEYGLTFTEKWNTDNT) [Peptide 7, synthetic peptide covering part of VDAC1] | – | 0.321 | 0.371 | –
LARGLKLTFD SSFSPNTGKK (LARGLKLTFDSSFSPNTGKK) [Peptide 10, synthetic peptide covering part of VDAC1] | – | 0.360 | 0.351 | –
LGTEITVEDQ LARGLKLTFD (LGTEITVEDQLARGLKLTFD) [Peptide 9, synthetic peptide covering part of VDAC1] | – | 0.286 | 0.338 | –
LKPGIKLTLS ALLDGKNVNA (LKPGIKLTLSALLDGKNVNA) [Peptide 26, synthetic peptide covering part of VDAC1] | – | 0.268 | 0.367 | –
LKTKSENGLE FTSSGSANTE (LKTKSENGLEFTSSGSANTE) [Peptide 4, synthetic peptide covering part of VDAC1] | – | 0.312 | 0.423 | –
MAVPPTYADL GKSARDVFTK (MAVPPTYADLGKSARDVFTK) [Peptide 1, synthetic peptide covering part of VDAC1] | – | 0.448 | 0.443 | –
NAKIKTGYKR EHINLGCDMD (NAKIKTGYKREHINLGCDMD) [Peptide 12, synthetic peptide covering part of VDAC1] | – | 0.345 | 0.375 | –
SLIGLGYTQT LKPGIKLTLS (SLIGLGYTQTLKPGIKLTLS) [Peptide 25, synthetic peptide covering part of VDAC1] | – | 0.590 | 0.679 | weak reaction
SSFSPNTGKK NAKIKTGYKR (SSFSPNTGKKNAKIKTGYKR) [Peptide 11, synthetic peptide covering part of VDAC1] | – | 0.319 | 0.361 | –
TAGNSNTRFG IAAKYQIDPD (TAGNSNTRFGIAAKYQIDPD) [Peptide 22, synthetic peptide covering part of VDAC1] | – | 0.318 | 0.319 | –
TTKVTGSLET KYRWTEYGLT (TTKVTGSLETKYRWTEYGLT) [Peptide 6, synthetic peptide covering part of VDAC1] | – | 0.358 | 0.363 | –
VGYKTDEFQL HTNVNDGTEF (VGYKTDEFQLHTNVNDGTEF) [Peptide 18, synthetic peptide covering part of VDAC1] | – | 0.275 | 0.305 | –
